Measured values: patent US7371207B2 (Wyeth, priority 2002, dated 2008)

Assays:
[1] = test system: gene expression in the kidney; experiment: Real-time PCR of kidney gene expression in ovariectomized WT mice
Description: FIGS. 5A-5B show a series of graphs showing expression levels for various genes. […] (B) Uterine wet weights (mg) and gene expression values (mean±SEM).
FIGS. 6A-6D show a series of bar graphs depicting relative expression levels for various genes.
(§1) One week later, the animals were ovariectomized.

[2] = test system: gene expression in the uterus; experiment: Real-time PCR of uterine gene expression in ovariectomized WT mice; assay type: in vivo, mouse; conditions: various doses s.c. six weeks, FIG. 5
Description: as §1

[3] = test system: gene expression in the kidney; experiment: In situ hybridization of kidney, ovariectomized mice; assay type: in vivo, mouse; conditions: 20 μg/kg/day E2 six weeks, FIG. 3
Description: No signal was detected with the corresponding sense probes.
Generally, in situ hybridization comprises the following major steps: (1) fixation of tissue or biological structure to be analyzed; (2) prehybridization treatment of the biological structure to increase accessibility of target nucleic acid, and to reduce nonspecific binding; (3) hybridization of the mixture of nucleic acids to the nucleic acid in the biological structure or tissue; (4) post-hybridization washes to remove nucleic acid fragments not bound in the hybridization, and (5) detection of the hybridized nucleic acid fragments. The probes used in such applications are typically labeled, for example, with radioisotopes or fluorescent reporters. Preferred probes are sufficiently long, for example, from about 50, 100, or 200 nucleotides to about 1000 or more nucleotides, to enable specific hybridization with the target nucleic acid(s) under stringent conditions.
as §1

[4] = 10 μg/kg/day E2 or 5 mg/kg/day tamoxifen, 6 weeks, FIG. 8

For `C[C@]12CC[C@@H]3c4ccc(O)cc4CC[C@H]3[C@@H]1CC[C@@H]2O` [E2, 17β-estradiol], the “BCAT1 expression in kidney, WT mice” value [1, 4] was “induced”, the “CYP7B1 expression in kidney, WT mice” value [1, 4] was “induced” and the “TF expression in kidney, WT mice” value [1, 4] was “induced”. The “ED50 for stimulation of CYP7B1, TF, STAT5A, and BCAT1 in the kidney” value ([1]; ovariectomized WT mice, various doses s.c. six weeks, FIG. 5) was “about 3 μg/kg/day”, the “ED50 for BCAT1 induction in the uterus” value [2] was 0.2 µg/kg/day and the “ED50 for c-fos induction in the uterus” value [2] was 2.7 µg/kg/day. The “localization of induction of CYP7B1, TF, STAT5A and GADD45G in mouse kidney” value [3] was “induction of gene expression occurred in the juxtamedullary region of the kidney”.
